Results as given in PMC5823469, “Unique pharmacological properties of serotoninergic G-protein coupled receptors from cestodes” (PLoS Neglected Tropical Diseases, 2018).
Where two headings read alike, the source gives them in different places.

Tests used:
5-HT7Egran1 = 5-HT7Egran1 (Echinococcus canadensis, UniProt A0A482LU10); experiment: cell-based; format: cell-based, Echinococcus granulosus; details: for pharmacological behaviour (agonist/antagonist, efficacy) in cAMP assay: 5-HT7Egran1
Method: (§1) HEK-293 cells (ATCC CRL-1573.3) were cultured in growth media [DMEM (Gibco), 10% heat inactivated fetal bovine serum (Gibco), penicillin (100units/mL), streptomycin (100μg/mL) and L-glutamine (290μg/mL)] and used for assays between passages 5 and 25. For cestode GPCR heterologous expression assays, cells were transfected (Lipofectamine 2000, Invitrogen) at 80% confluency approximately 16 hours after seeding within T-25 culture flasks with a 1:1 ratio of human codon optimized cestode GPCR cDNA (subcloned into a pcDNA3.1(-) mammalian expression vector) and cDNA encoding the pGloSensor 22-F plasmid (Promega). The following day, cells were trypsinized, centrifuged (300g/5min), resuspended in DMEM supplemented with 1% dialyzed FBS (Gibco) and plated in 96 well, solid white plates (Corning, cat # 3917). After overnight culture to allow adherence, media was exchanged for assay buffer (HBSS supplemented with 0.1% BSA, 20mM HEPES (pH 7.4), and GloSensor reagent (Promega). cAMP-luminescence assays were performed following addition of a phosphodiesterase inhibitor (3-isobutyl-1-methylxanthine, IBMX; 200μM) using a GloMax-Multi Detection System plate reader (Promega) as described previously.

5-HT7Egran2 = 5-HT7Egran2 (Echinococcus canadensis, UniProt A0A482LXK0); experiment: cell-based; format: cell-based, Echinococcus granulosus
Sequence of 5-HT7Egran2 (A0A482LXK0 entry or part of it): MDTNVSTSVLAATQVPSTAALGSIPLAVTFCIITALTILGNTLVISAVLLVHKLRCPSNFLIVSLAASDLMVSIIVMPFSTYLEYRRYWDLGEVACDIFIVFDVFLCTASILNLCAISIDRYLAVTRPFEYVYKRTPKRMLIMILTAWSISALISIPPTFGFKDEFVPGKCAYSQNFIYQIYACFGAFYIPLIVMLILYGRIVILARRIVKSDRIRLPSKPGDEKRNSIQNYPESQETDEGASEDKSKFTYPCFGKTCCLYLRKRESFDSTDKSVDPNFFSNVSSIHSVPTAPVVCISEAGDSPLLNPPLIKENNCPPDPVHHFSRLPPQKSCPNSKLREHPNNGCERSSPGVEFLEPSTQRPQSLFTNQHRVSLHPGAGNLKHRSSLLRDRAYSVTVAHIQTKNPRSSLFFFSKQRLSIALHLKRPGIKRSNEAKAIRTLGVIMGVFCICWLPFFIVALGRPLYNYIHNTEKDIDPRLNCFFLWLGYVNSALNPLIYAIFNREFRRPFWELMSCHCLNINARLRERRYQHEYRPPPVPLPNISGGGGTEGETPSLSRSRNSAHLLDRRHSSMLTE
Method: as §1

5-HT7Mco1 = 5-HT7Mco1 (Mesocestoides corti, UniProt A0A482LRJ4); experiment: cell-based; format: cell-based
Sequence of 5-HT7Mco1 (A0A482LRJ4 entry or part of it): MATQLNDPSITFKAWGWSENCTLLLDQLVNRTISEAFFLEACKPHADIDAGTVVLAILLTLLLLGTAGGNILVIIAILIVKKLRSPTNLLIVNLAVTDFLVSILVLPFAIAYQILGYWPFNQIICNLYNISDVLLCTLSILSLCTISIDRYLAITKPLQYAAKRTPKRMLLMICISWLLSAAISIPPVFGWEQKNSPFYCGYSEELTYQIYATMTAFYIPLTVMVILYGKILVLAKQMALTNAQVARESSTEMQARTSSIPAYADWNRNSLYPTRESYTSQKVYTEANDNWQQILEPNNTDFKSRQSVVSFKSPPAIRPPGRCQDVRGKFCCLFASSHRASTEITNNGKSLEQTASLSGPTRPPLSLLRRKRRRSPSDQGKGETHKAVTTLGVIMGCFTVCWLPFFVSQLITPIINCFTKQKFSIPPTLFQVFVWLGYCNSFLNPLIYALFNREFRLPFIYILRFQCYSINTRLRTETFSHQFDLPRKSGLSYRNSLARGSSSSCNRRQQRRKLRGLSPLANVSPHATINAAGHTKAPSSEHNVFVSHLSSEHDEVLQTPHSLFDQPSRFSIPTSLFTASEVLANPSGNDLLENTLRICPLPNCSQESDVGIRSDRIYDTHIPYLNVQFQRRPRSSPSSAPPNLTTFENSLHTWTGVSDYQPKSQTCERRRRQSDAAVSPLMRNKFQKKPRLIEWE
Method: as §1

[1] = system: Mesocestoides corti tetrathyridia; experiment: Motility index of tetrathyridia, WMicrotracker (light scattering)
Method: For the motility index measurement, the method of Camicia et al. was followed with minor modifications. In the case of E. granulosus, protoscoleces were mantained in RPMI medium with high glucose (Gibco, USA) with 50 μg/ml of gentamicin for no more than 48 hours in order to avoid the potential differentiation of the protoscolex towards premicrocyst. The day before the experiment the protoscoleces were transferred to U-shape 96-well microplates (Greiner Bio-One, Germany) with approximately 125 parasites per 100 μl per well. This number of parasites per well was empirically determined as the best number of worms to perform the experiments. Movement was measured as described for C. elegans using a worm tracker device (WMicrotracker Designplus SRL, Argentina) which determines the motility index by the light-microbeam (100 μm wide; k = 880 nm; intensity <1 mW) scattering produced by the movement of parasites. Quantification of the signal was performed by applying a mathematical algorithm previously described for sperm viability determination (Patent number: US4176953, year of submission: 1978, year of publication: 1979).
To study the effect of 5-HT on the motility of M. corti tetrathyridia, only one worm per well was used as this was the empirically determined optimal number. […] M. corti tetrathyridia were used fresh, immediately after the mice was opened. […]

[2] = system: Mesocestoides corti tetrathyridia; experiment: Motility of tetrathyridia by video imaging; details: period of 30 minutes
Method: In some experiments, alongside to the worm tracker motility analyses, the parasite motor activity was also measured with a digital video camera (Kodak easy share Z915 digital camera) coupled to an inverted microscope (Nikon, model TMS-F). Fresh parasites were processed in the same way as in previous sections in U-shape 96-well microplates, then incubated overnight at 37°C in a 5% CO2 atmosphere and finally video recorded with a digital camera after drug treatment. Images were obtained for a period of 15 seconds and the data were analyzed with ImageJ software (version 1.48, NIH, USA). […] To quantify this type of movements the method of Patocka et al. was followed with some modifications. The videos were transformed to stacks of TIFF images by using the Filmora video editor (Wondershare Filmora, version 8.2.3, downloaded from https://filmora.wondershare.es/) and then imported into ImageJ. First, the stacks were first converted to 8 bit type images. Next, the background was subtracted and then converted to a binary image by threshold adjust. […]
Statistical analyses were carried out using the GraphPad Prism Software package, version 6 for Windows (GraphPad Software, CA, USA). […] For image based assays, pixel changes in control and treatments were calculated and analyzed with one way ANOVA and Dunnett post-test were performed comparing all the concentrations with the control. […]

[3] = system: Mesocestoides corti tetrathyridia; parameters: method as in PMID 12003065; details: 30 minutes of incubation; cited from earlier work
human 5-HT1A receptor = biological target: human 5-HT1A receptor; parameters: method as in PMID 24900203; details: cited from earlier work

Sequence of 5-HT7Egran1 (A0A482LU10 entry or part of it): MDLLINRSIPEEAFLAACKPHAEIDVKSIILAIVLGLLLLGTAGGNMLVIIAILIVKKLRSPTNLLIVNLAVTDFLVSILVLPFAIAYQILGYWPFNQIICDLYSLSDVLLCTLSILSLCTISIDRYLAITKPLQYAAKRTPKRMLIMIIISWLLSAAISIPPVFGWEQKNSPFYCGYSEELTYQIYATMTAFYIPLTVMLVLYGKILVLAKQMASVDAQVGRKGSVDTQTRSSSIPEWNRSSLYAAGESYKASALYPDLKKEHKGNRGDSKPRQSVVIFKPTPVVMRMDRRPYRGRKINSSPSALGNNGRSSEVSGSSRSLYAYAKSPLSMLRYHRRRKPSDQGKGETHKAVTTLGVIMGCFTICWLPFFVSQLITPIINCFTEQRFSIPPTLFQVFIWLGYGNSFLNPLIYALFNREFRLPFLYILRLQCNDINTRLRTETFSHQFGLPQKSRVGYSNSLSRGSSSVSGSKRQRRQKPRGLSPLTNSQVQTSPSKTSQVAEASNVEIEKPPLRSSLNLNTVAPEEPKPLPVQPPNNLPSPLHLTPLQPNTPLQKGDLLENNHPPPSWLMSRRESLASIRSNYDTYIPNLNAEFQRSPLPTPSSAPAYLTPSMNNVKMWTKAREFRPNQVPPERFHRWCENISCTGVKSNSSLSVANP

SMILES	EC50 (5-HT7Egran1) [nM]	EC50 (5-HT7Mco1) [nM]	pharmacological behaviour (agonist/antagonist, efficacy) in cAMP assay (5-HT7Egran1)	pharmacological behaviour (agonist/antagonist, efficacy) in cAMP assay (5-HT7Egran2; 5-HT7Egran2)	pharmacological behaviour (agonist/antagonist, efficacy) in cAMP assay (5-HT7Mco1; 5-HT7Mco1)	EC50 (5-HT7Egran2) [nM]	further results
NCCc1c[nH]c2ccc(O)cc12 [5-HT, 5-hydroxytryptamine]	171 ± 57	0.255 ± 0.063					fold-change in luminescence signal on addition of 5-HT (5-HT7Egran1; cells expressing 5-HT7Egran1): ~ 20 fold; EC50 (5-HT7Egran2; HEK-293 cells expressing 5-HT7Egran2, IBMX 200μM, read-out: EC50 for evoked cAMP production): 0.543 ± 0.107 nM; fold-change in luminescence signal on addition of 5-HT (5-HT7Egran2; cells expressing 5-HT7Egran2, basal coupling): ~ 3.3 fold; fold-change in luminescence signal on addition of 5-HT (5-HT7Mco1; cells expressing 5-HT7Mco1, basal coupling): ~ 2.5 fold; concentration from which stimulation of motility is observed ([1]; 30 minutes of incubation, light scattering method): ≥ 500 µM; concentration from which a significant rise of motility is seen ([1]; period of two hours, WMicrotracker, up to 2000 μM): ≥ 100 µM; concentration necessary for significant changes in motility [2]: 1000 µM; concentration previously reported to stimulate tetrathyridia motility [3]: 100 nM
CCN(CC)C(=O)[C@@H]1C=C2c3cccc4[nH]cc(c34)C[C@H]2N(C)C1 [LSD, Lysergic acid diethylamide]	35 ± 6	4.4 ± 1	potently activated	antagonist	potently activated		IC50 (5-HT7Egran2): 2.9 ± 0.2 nM
CN(C)c1cccc2c(S(=O)(=O)NCCCCC34CCCN3C(=O)N(CCCCN3CCN(c5cccc6ccccc56)CC3)C4=O)cccc12 (centres unmarked) [UCM120]							Ki (human 5-HT1A receptor): 2 nM
NCCc1c[nH]c2ccccc12 [tryptamine]		~1000				~800	cAMP response to neurotransmitter (activation) (5-HT7Egran2; 10μM, cells expressing 5-HT7Egran2): activator; sensitivity to tryptamine relative to 5-HT (fold less sensitive) (5-HT7Egran2; 5-HT7Egran2): at least 1000 fold; cAMP response to neurotransmitter (activation) (5-HT7Mco1; 10μM, cells expressing 5-HT7Mco1): activator; sensitivity to tryptamine relative to 5-HT (fold less sensitive) (5-HT7Mco1; 5-HT7Mco1): at least 1000 fold
CN1C[C@H](C(=O)N[C@]2(C)O[C@@]3(O)[C@@H]4CCCN4C(=O)[C@H](Cc4ccccc4)N3C2=O)C=C2c3cccc4[nH]cc(c34)C[C@H]21 [ergotamine]	290 ± 49	354 ± 62	low efficacy partial agonist	higher efficacy partial agonist	higher efficacy partial agonist	234 ± 37	
